Data reported in patent publication US8735414B2 (priority 2009, dated 2014).

Tests used:
[1] = tested on: bicistronic HCV replicon (replicon RNA, GenBank Accession No. AJ242654); experiment: HCV Replicon Assay; type: cell-based; details: Hepatitis C virus, 72 h, read-out: Replicon IC50

| Compound | IC50 [1] | melting point |
| --- | --- | --- |
| Cc1ccc2c(c1)c(C#N)c(-c1ccc(S(=O)(=O)N[C@@H](C)C(F)(F)F)cn1)n2-c1ccccc1 [compound 921, 6-(3-cyano-5-methyl-1-phenyl-1H-indol-2-yl)-N-[(2S)-1,1,1-trifluoropropan-2-yl]pyridine-3-sulfonamide] | < 500 nM | 160 to 165 °C |
| Cc1ccc2c(c1)c(C#N)c(-c1ccc(S(=O)(=O)N[C@@H](C)C(F)(F)F)cn1)n2-c1ncccn1 [compound 843, 6-[3-cyano-5-methyl-1-(pyrimidin-2-yl)-1H-indol-2-yl]-N-[(2S)-1,1,1-trifluoropropan-2-yl]pyridine-3-sulfonamide] | < 500 nM | 174 to 179 °C |
| CCS(=O)(=O)Nc1ccc(-c2c(C#N)c3ccc(OC(C)C)cc3n2C2CCC2)nn1 [compound 276, N-{6-[3-cyano-1-cyclobutyl-6-(propan-2-yloxy)-1H-indol-2-yl]pyridazin-3-yl}ethanesulfonamide] | 2000 to 5000 nM | 181 to 183 °C |
| Cc1ccc(-n2c(-c3ccc(S(=O)(=O)N[C@@H](C)C(F)(F)F)cn3)c(C#N)c3cc(F)c(C)cc32)s1 [compound 1031, 6-[3-cyano-5-fluoro-6-methyl-1-(5-methylthiophen-2-yl)-1H-indol-2-yl]-N-[(2S)-1,1,1-trifluoropropan-2-yl]pyridine-3-sulfonamide] | < 500 nM | 246.8 to 249.4 °C |
| CCc1cc2c(cc1F)c(C#N)c(-c1ccc(S(=O)(=O)N[C@@H](C)C(F)(F)F)cn1)n2-c1cccc(C#N)c1 [compound 1012, 6-[3-cyano-1-(3-cyanophenyl)-6-ethyl-5-fluoro-1H-indol-2-yl]-N-[(2S)-1,1,1-trifluoropropan-2-yl]pyridine-3-sulfonamide] | 500 to 2000 nM | 244 to 248 °C |
| COc1ccc2c(c1)c(C#N)c(-c1ncc(S(=O)(=O)NC(CF)CF)cn1)n2C1CCCC1 [compound 572, 2-(3-cyano-1-cyclopentyl-5-methoxy-1H-indol-2-yl)-N-(1,3-difluoropropan-2-yl)pyrimidine-5-sulfonamide] | < 500 nM | 200 to 202 °C |
| CCCn1c(-c2ncc(S(=O)(=O)N[C@@H](C)C(F)(F)F)cn2)c(C#N)c2ccc(OC(F)F)cc21 [compound 400, 2-[3-cyano-6-(difluoromethoxy)-1-propyl-1H-indol-2-yl]-N-[(2S)-1,1,1-trifluoropropan-2-yl]pyrimidine-5-sulfonamide] | < 500 nM | 207 to 208 °C |
| CC(C)Sc1ccc2c(C#N)c(-c3ccc(S(=O)(=O)N4CCCCC4)cn3)n(C3CCC3)c2c1 [compound 22, 1-cyclobutyl-2-[5-(piperidin-1-ylsulfonyl)pyridin-2-yl]-6-(propan-2-ylsulfanyl)-1H-indole-3-carbonitrile] | 500 to 2000 nM | 169 to 171 °C |
| Cc1cc2c(C#N)c(-c3ccc(S(=O)(=O)N[C@@H](C)C(F)(F)F)cn3)n(C3CCCC3)c2cc1F [compound 483, 6-(3-cyano-1-cyclopentyl-6-fluoro-5-methyl-1H-indol-2-yl)-N-[(2S)-1,1,1-trifluoropropan-2-yl]pyridine-3-sulfonamide] | < 500 nM | 219 to 223 °C |
| Cc1cc2c(cc1O)c(C(N)=O)c(-c1ccc(S(=O)(=O)NC(C)(C)C)cn1)n2C1CCC1 [compound 828, 2-[5-(tert-butylsulfamoyl)pyridin-2-yl]-1-cyclobutyl-5-hydroxy-6-methyl-1H-indole-3-carboxamide] | 2000 to 5000 nM | 292 to 293 °C |
| C[C@H](NS(=O)(=O)c1ccc(-c2c(C#N)c3cc(Cl)ccc3n2-c2ncccn2)nc1)C(F)(F)F [compound 708, 6-[5-chloro-3-cyano-1-(pyrimidin-2-yl)-1H-indol-2-yl]-N-[(2S)-1,1,1-trifluoropropan-2-yl]pyridine-3-sulfonamide] | < 500 nM | 193 to 196 °C |
| N#Cc1c(-c2ccc(S(=O)(=O)Nc3ccccc3)cn2)n(C2CCC2)c2cc(OC(F)F)c(F)cc12 [compound 791, 6-[3-cyano-1-cyclobutyl-6-(difluoromethoxy)-5-fluoro-1H-indol-2-yl]-N-phenylpyridine-3-sulfonamide] | 2000 to 5000 nM | 178 to 179 °C |
| N#Cc1ccc2c(C#N)c(-c3ccc(S(=O)(=O)NC(CF)CF)cn3)n(C3CCCC3)c2c1 [compound 468, 6-(3,6-dicyano-1-cyclopentyl-1H-indol-2-yl)-N-(1,3-difluoropropan-2-yl)pyridine-3-sulfonamide] | < 500 nM | 219 to 221 °C |
| CCc1cc2c(cc1F)c(C#N)c(-c1ccc(S(=O)(=O)NC3(C(F)(F)F)CC3)cn1)n2C1CCC1 [compound 642, 6-(3-cyano-1-cyclobutyl-6-ethyl-5-fluoro-1H-indol-2-yl)-N-[1-(trifluoromethyl)cyclopropyl]pyridine-3-sulfonamide] | < 500 nM | 203 to 203.5 °C |
| CC(C)(NS(=O)(=O)c1ccc(-c2c(C#N)c3ccc(OC(F)F)cc3n2-c2ccccn2)nc1)C(F)(F)F [compound 583, 6-[3-cyano-6-(difluoromethoxy)-1-(pyridin-2-yl)-1H-indol-2-yl]-N-(1,1,1-trifluoro-2-methylpropan-2-yl)pyridine-3-sulfonamide] | < 500 nM | 170 to 173 °C |
| C[C@H](NS(=O)(=O)c1cnc(-c2c(C#N)c3ccc(F)cc3n2C2CCCCC2)nc1)C1CC1 [compound 499, 2-(3-cyano-1-cyclohexyl-6-fluoro-1H-indol-2-yl)-N-[(1S)-1-cyclopropylethyl]pyrimidine-5-sulfonamide] | < 500 nM | 169 to 170 °C |
| CCc1cc2c(cc1F)c(C#N)c(-c1ccc(S(=O)(=O)N[C@@H](C)C(F)(F)F)cn1)n2-c1ccc(Cl)cn1 [compound 966, 6-[1-(5-chloropyridin-2-yl)-3-cyano-6-ethyl-5-fluoro-1H-indol-2-yl]-N-[(2S)-1,1,1-trifluoropropan-2-yl]pyridine-3-sulfonamide] | < 500 nM | 252 to 259 °C |
| Cc1ccc2c(C#N)c(-c3ncc(S(=O)(=O)NC(CF)CF)cn3)n(C(C)C)c2c1 [compound 134, 2-[3-cyano-6-methyl-1-(propan-2-yl)-1H-indol-2-yl]-N-(1,3-difluoropropan-2-yl)pyrimidine-5-sulfonamide] | < 500 nM | 213 to 215 °C |
| N#Cc1c(-c2ccc(S(=O)(=O)NC(CF)CF)cn2)n(C2CCCCC2)c2cc(C3CC3)ccc12 [compound 92, 6-(3-cyano-1-cyclohexyl-6-cyclopropyl-1H-indol-2-yl)-N-(1,3-difluoropropan-2-yl)pyridine-3-sulfonamide] | < 500 nM | 193 to 198 °C |
| COc1ccc2c(c1)c(C#N)c(-c1ccc(S(=O)(=O)N[C@@H](C)C(F)(F)F)cn1)n2C1CCC1 [compound 453, 6-(3-cyano-1-cyclobutyl-5-methoxy-1H-indol-2-yl)-N-[(2S)-1,1,1-trifluoropropan-2-yl]pyridine-3-sulfonamide] | < 500 nM | 181 to 183 °C |
| C[C@H](NS(=O)(=O)c1ccc(-c2c(C#N)c3cc(F)c(C4CC4)cc3n2-c2ncccn2)nc1)C(F)(F)F [compound 820, 6-[3-cyano-6-cyclopropyl-5-fluoro-1-(pyrimidin-2-yl)-1H-indol-2-yl]-N-[(2S)-1,1,1-trifluoropropan-2-yl]pyridine-3-sulfonamide] | < 500 nM | 236 to 240 °C |
| Cc1ccc2c(C#N)c(-c3ncc(S(=O)(=O)NC(CF)CF)cn3)n(C3CCCCC3)c2c1 [compound 241, 2-(3-cyano-1-cyclohexyl-6-methyl-1H-indol-2-yl)-N-(1,3-difluoropropan-2-yl)pyrimidine-5-sulfonamide] | < 500 nM | 225 to 230 °C |
| COc1ccc2c(C#N)c(-c3ccc(S(=O)(=O)N[C@@H](C)C(F)(F)F)cn3)n(C3CCCC3)c2c1 [compound 430, 6-(3-cyano-1-cyclopentyl-6-methoxy-1H-indol-2-yl)-N-[(2S)-1,1,1-trifluoropropan-2-yl]pyridine-3-sulfonamide] | < 500 nM | 209 to 216 °C |
| CC(C)n1c(-c2ccc(S(=O)(=O)NC(CF)CF)cn2)c(C#N)c2cc(Cl)ccc21 [compound 65, 6-[5-chloro-3-cyano-1-(propan-2-yl)-1H-indol-2-yl]-N-(1,3-difluoropropan-2-yl)pyridine-3-sulfonamide] | < 500 nM | 212 to 215 °C |
| Cc1cc2c(cc1F)c(C#N)c(-c1ccc(S(=O)(=O)N[C@@H](C)C(F)(F)F)cn1)n2-c1ccc(F)c(C)n1 [compound 961, 6-[3-cyano-5-fluoro-1-(5-fluoro-6-methylpyridin-2-yl)-6-methyl-1H-indol-2-yl]-N-[(2S)-1,1,1-trifluoropropan-2-yl]pyridine-3-sulfonamide] | < 500 nM | 240 to 246 °C |
| C[C@H](NS(=O)(=O)c1ccc(-c2c(C#N)c3ccc(C#N)cc3n2C2CCC2)nc1)C(F)(F)F [compound 467, 6-(3,6-dicyano-1-cyclobutyl-1H-indol-2-yl)-N-[(2S)-1,1,1-trifluoropropan-2-yl]pyridine-3-sulfonamide] | < 500 nM | 223 to 225 °C |
| COc1ccc2c(C#N)c(-c3ccc(S(=O)(=O)N[C@@H](C)C(F)(F)F)cn3)n(C3CCC3)c2c1 [compound 427, 6-(3-cyano-1-cyclobutyl-6-methoxy-1H-indol-2-yl)-N-[(2S)-1,1,1-trifluoropropan-2-yl]pyridine-3-sulfonamide] | < 500 nM | 206 to 212 °C |
| Cc1cc2c(cc1Cl)c(C(N)=O)c(-c1ccc(S(=O)(=O)N[C@@H](C)C(F)(F)F)cn1)n2C1CCC1 [compound 734, 5-chloro-1-cyclobutyl-6-methyl-2-(5-{[(2S)-1,1,1-trifluoropropan-2-yl]sulfamoyl}pyridin-2-yl)-1H-indole-3-carboxamide] | < 500 nM | 207 to 209 °C |
